The values that follow come from patent US20080200422A1, “Methods for reduction of adipose tissue mass” (priority 2007, published 2008).

One experiment has as its system liver FAS expression. Particulars: 24 hrs after a single IP injection (30 mg/kg body weight); cited from earlier work.
Experiment [1] relates to leucine-deprived GCN2−/− mice. Briefly: C75 treatment of leucine-deprived GCN2−/− mice (liver steatosis, liver gene expression). It is filed as in vivo. Particulars: 20 mg/kg IP, three doses over seven days. As to the method:
FIG. 5. Leucine deprivation induced-liver steatosis in GCN2^−/− mice is prevented by inhibition of FAS expression. GCN2 KO (−/−) mice were fed a leucine-deprived diets for seven days and were given C75 at a dose of 20 mg/Kg body weight in 200 μl RPMI or only RPMI every other day by IP injection during this period. A. Liver histology for GCN2 KO mice. Sections from animals were stained with oil red O, magnification 40×. Lipid deposits are detected as red-stained areas. B and C. Expression of FAS mRNA (B) and FAS protein (C, top: western blot; bottom: FAS protein relative to tubulin and normalized to control diet group within same strains of mice). *Effect of with C75 treatment fed on (−) leu diet versus without C75 treatment fed on (−) leu diet or control diet in GCN2 KO mice (two-tailed student t-test; p<0.0001.). [KO: control diet (n=6); (−) leu diet (n=5); (−) leu diet+C75 (n=3)]. D and E. Expression of PPARα and ACO mRNA. *Effect of with C75 treatment versus without C75 treatment on either (−) leu diet (*a: p<0.001) or control diet group (*b: p<0.001) in GCN2 KO mice (two-tailed student t-test; p<0.0001.). [KO: control diet (n=6); (−) leu diet (n=5); (−) leu diet+C75 (n=3)].
Wild-type C57BL/6J (GCN2^+/+) mice were obtained from Jackson Laboratories (Bar Harbor, Me.). […] Food intake and body weight were recorded daily. […] Body, liver and adipose tissue weight were recorded at the time of sacrifice. […]
Total RNA was prepared from frozen liver using an RNase mini kit (Qiagen). Quantitative RT-PCR was performed using co-amplification of GAPDH as an internal control. 1 μg of RNA was reverse transcribed with random primers (Promega) and then quantitative PCR was performed with the qPCR core kit for sybergreen I (Eurogentec) by 7000 sequence detection system (Applied Biosystems). […] At a specific threshold in the linear amplification stage, the cycle differences between amplified GAPDH and cDNA of interest were used to determine the relative quantity of genes of interest. […]

For a further experiment, the system named is GCN2−/− mice. Briefly: PPARα agonist WY compound in leucine-deprived GCN2−/− mice (fatty liver). It is filed as in vivo.

Molecules are shown by their SMILES. “Also recorded” adds a separate entry of the source.

Turning to `C=C1C(=O)OC(CCCCCCCC)C1C(=O)O` (centres unmarked) [C75], the “liver FAS expression” value with liver FAS expression is reported as “inhibit FAS expression significantly; also recorded: significant reductions”. Besides, in experiment [1], the “FAS mRNA and protein levels in liver” value is given as “repressed”; the “levels of PPARα and ACO mRNA in liver” value was “reduced”; the liver steatosis result is “prevented”.

`Cc1cccc(Nc2cc(Cl)nc(SCC(=O)O)n2)c1C` [WY compound]: the “development of fatty liver” value with GCN2−/− mice is “not able to prevent”.
